Assay results from patent US11464749B2, “Bismuth-thiol compositions and methods of use” (Microbion Corporation, priority 2018, dated 2022).

Key:
P. aeruginosa = P. aeruginosa isolate 103; CLSI QC range shown in parenthesis; cited from earlier work
[1] = Phase 1 human clinical studies, topical tolerability; type: in vivo; details: humans
[2] = Single-dose rat PK comparing inhalation, IV and oral dosing
Experimental: Blood Collection for Bioanalytical Analysis: Following exposure, non-terminal blood collections were performed on 2 animals per sex at 0.5, 2, and 8 hours post exposure. Approximately 1 mL of systemic whole blood was collected by jugular vein into tubes containing K3EDTA as an anticoagulant. The tubes were flash frozen with liquid nitrogen stored without processing at −70 to −90° C. until shipping for analysis using ICP-MS assay for quantitation of bismuth as a surrogate for BisEDT.
Increasing the dose and interval leads to larger fluctuations in tissue and blood levels between peak (after dosing) and trough levels (prior to dosing).

[3] = 24 hours after single inhalation dose
[4] = 4 days (96 hrs) after single inhalation dose

C1C[S][Bi]([S]CC[S][Bi]2[S]CC[S]2)[S]1 [BisEDT, bismuth-1,2-ethanedithiol]
MIC, CLSI QC range (P. aeruginosa): (0.5-4) μg/mL | concentration well-tolerated when administered topically ([1]; 6 hours): up to 2500 μg/cm^2 | concentration tolerated when administered topically ([1]; over 21 days continuous exposure, normal and abraded skin): up to 75 μg/cm^2 | lung levels after IV dosing vs inhalation group ([2]; 100 μg/kg IV): < 5% | tolerability ([2]; 100 μg/kg inhalation and IV and 250 μg/kg oral): tolerated | lung levels after oral dosing ([2]; 250 μg/kg oral): no lung levels | equated concentration in lung fluid [2, 3]: 123 µg/mL | lung tissue concentration [2, 3]: 4,093 ng/g | equated concentration in lung fluid [2, 4]: 78 µg/mL | lung tissue concentration [2, 4]: 2,600 ng/g | duration of initial distribution into tissues ([2]; IV dosing): 18 h | Kp ([2]; both, lung versus whole blood, inhaled, 100 μg/kg): ~10
